Where a name gives a salt, the structure may show the parent alone.
Target: T1, human hNET (Homo sapiens, UniProt P23975)
T1 construct: expressed in transfected cells; host or cells: MDCK (MDCK-Net6)
Experiment: Norepinephrine (NE) uptake assay in MDCK-Net6 cells
Assay type: cell-based
Settings: [3H]NE uptake; for EC50: MDCK-Net6 cells stably transfected with hNET; for inhibition at 1 µM: MDCK-Net6 cells, read-out: hNET Percentage inhibition at 1 μM
Protocol: Cells were plated at 300,000/T75 flask and cells were split twice weekly. […] Cells were plated at 250,000 cells/T75 flask and split twice weekly.
Norepinephrine (NE) Uptake Assay
On day 1, cells were plated at 3,000 cells/well in growth medium and maintained in a cell incubator (37° C., 5% CO2). On day 2, growth medium was replaced with 200 μl of assay buffer (25 mM HEPES; 120 mM NaCl; 5 mM KCl; 2.5 mM CaCl2; 1.2 mM MgSO4; 2 mg/ml glucose (pH 7.4, 37° C.)) containing 0.2 mg/ml ascorbic acid and 10 μM pargyline. Plates containing cells with 200 μl of assay buffer were equilibrated for 10 minutes at 37° C. prior to addition of compounds. A stock solution of desipramine was prepared in DMSO (10 mM) and delivered to triplicate wells containing cells for a final test concentration of 1 μM. Data from these wells were used to define non-specific NE uptake (minimum NE uptake). Test compounds were prepared in DMSO (10 mM) and diluted in assay buffer according to test range (1 to 10,000 nM). Twenty-five microliters of assay buffer (maximum NE uptake) or test compound were added directly to triplicate wells containing cells in 200 μl of assay buffer. The cells in assay buffer with test compounds were incubated for 20 minutes at 37° C. […] The reaction was terminated by decanting the supernatant from the plate. The plates containing cells were washed twice with 200 μl assay buffer (37° C.) to remove free radioligand. The plates were then inverted, left to dry for 2 minutes, then reinverted and air-dried for an additional 10 minutes. […] After cell lysis, 75 μl of scintillation cocktail was added to each well and the plates were sealed with film tape. The plates were returned to the shake table and vigorously shaken for a minimum of 10 minutes to ensure adequate partitioning of organic and aqueous solutions. The plates were counted in a Wallac Microbeta counter (PerkinElmer) to collect the raw cpm data.
For each experiment, a data stream of cpm values collected from the Wallac Microbeta counter was downloaded to a Microsoft Excel statistical application program. Calculations of EC50 values were made using the transformed-both-sides logistic dose response program written by Wyeth Biometrics Department.

T1 sequence (P23975 whole entry): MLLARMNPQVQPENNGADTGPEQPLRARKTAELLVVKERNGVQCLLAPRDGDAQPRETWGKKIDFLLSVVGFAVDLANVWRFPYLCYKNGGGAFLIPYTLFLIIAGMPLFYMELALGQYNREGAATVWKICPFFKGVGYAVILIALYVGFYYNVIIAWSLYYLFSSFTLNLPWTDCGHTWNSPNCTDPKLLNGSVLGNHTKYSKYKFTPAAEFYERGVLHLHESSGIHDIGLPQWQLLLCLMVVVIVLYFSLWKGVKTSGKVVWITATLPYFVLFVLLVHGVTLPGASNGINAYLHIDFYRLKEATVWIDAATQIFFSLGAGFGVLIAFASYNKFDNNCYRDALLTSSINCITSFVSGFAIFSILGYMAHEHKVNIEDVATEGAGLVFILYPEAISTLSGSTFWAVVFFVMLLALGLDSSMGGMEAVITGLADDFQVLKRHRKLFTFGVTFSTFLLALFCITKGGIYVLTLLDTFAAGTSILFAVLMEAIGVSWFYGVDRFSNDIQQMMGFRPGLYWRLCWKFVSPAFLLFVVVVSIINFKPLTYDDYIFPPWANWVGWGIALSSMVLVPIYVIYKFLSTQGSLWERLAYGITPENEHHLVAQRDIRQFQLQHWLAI

Structure (SMILES)	EC50	inhibition at 1 µM
CNC[C@@H](O)[C@H](c1cccc(F)c1)n1cc(-c2ccccc2OC(F)(F)F)c2ccccc21 [Example 34, (1S,2R)-1-(3-fluorophenyl)-3-(methylamino)-1-{3-[2-(trifluoromethoxy)phenyl]-1H-indol-1-yl}propan-2-ol hydrochloride]	327 nM	
CNC[C@@H](O)[C@H](c1cccc(F)c1)n1cc(-c2ccccc2OC(C)C)c2ccccc21 [Example 35, (1S,2R)-1-(3-fluorophenyl)-3-(methylamino)-1-{3-[2-(isopropoxy)phenyl]-1H-indol-1-yl}propan-2-ol hydrochloride]	169 nM	
CNC[C@@H](O)[C@H](c1cccc(F)c1)n1cc(-c2ccc(F)cc2)c2ccccc21 [Example 36, (1S,2R)-1-(3-fluorophenyl)-1-[3-(4-fluorophenyl)-1H-indol-1-yl]-3-(methylamino)propan-2-ol hydrochloride]	711 nM	
CNC[C@@H](O)[C@H](c1cccc(F)c1)n1cc(-c2ccccc2Oc2ccccc2)c2ccccc21 [Example 37, (1S,2R)-1-(3-fluorophenyl)-3-(methylamino)-1-[3-(2-phenoxyphenyl)-1H-indol-1-yl]propan-2-ol hydrochloride]		26%
CNC[C@@H](O)[C@H](c1cccc(F)c1)n1cc(-c2ccc(Cl)cc2Cl)c2ccccc21 [Example 41, (1S,2R)-1-[3-(2,4-dichlorophenyl)-1H-indol-1-yl]-1-(3-fluorophenyl)-3-(methylamino)propan-2-ol hydrochloride]	193 nM	
CNC[C@@H](O)[C@H](c1cccc(F)c1)n1ccc2cc(OC)nc(Cl)c21 [Example 43, (1S,2R)-1-(7-chloro-5-methoxy-1H-pyrrolo[2,3-c]pyridin-1-yl)-1-(3-fluorophenyl)-3-(methylamino)propan-2-ol hydrochloride]	299 nM	
CNC[C@@H](O)[C@H](c1ccccc1)n1ccc2cc(C)nc(Cl)c21 [Example 44, (1S,2R)-1-(7-chloro-5-methyl-1H-pyrrolo[2,3-c]pyridin-1-yl)-3-(methylamino)-1-phenylpropan-2-ol hydrochloride]	416 nM	
CNC[C@@H](O)[C@H](c1ccccc1)n1ccc2cc(OC)ncc21 [Example 45, (1S,2R)-1-(5-methoxy-1H-pyrrolo[2,3-c]pyridin-1-yl)-3-(methylamino)-1-phenylpropan-2-ol hydrochloride]		43%
CNC[C@@H](O)[C@H](c1cccc(F)c1)n1ccc2cc(OC)ncc21 [Example 46, (1S,2R)-1-(3-fluorophenyl)-1-(5-methoxy-1H-pyrrolo[2,3-c]pyridin-1-yl)-3-(methylamino)propan-2-ol hydrochloride]		46%
CNC[C@@H](O)[C@H](c1ccccc1)n1ccc2cc(C)ncc21 [Example 47, (1S,2R)-3-(methylamino)-1-(5-methyl-1H-pyrrolo[2.3-c]pyridin-1-yl)-1-phenylpropan-2-ol hydrochloride]		35%
CNC[C@@H](O)[C@H](c1cccc(F)c1)n1ccc2cc(C)ncc21 [Example 48, (1S,2R)-1-(3-fluorophenyl)-3-(methylamino)-1-(5-methyl-1H-pyrrolo[2,3-c]pyridin-1-yl)propan-2-ol hydrochloride]		51%
CNC[C@@H](O)[C@H](c1ccccc1)n1ccc2ccnc(C)c21 [Example 49, (1S,2R)-3-(methylamino)-1-(7-methyl-1H-pyrrolo[2,3-c]pyridin-1-yl)-1-phenylpropan-2-ol hydrochloride]		51%
CNC[C@@H](O)[C@H](c1cccc(F)c1)n1ccc2ccnc(C)c21 [Example 50, (1S,2R)-1-(3-fluorophenyl)-3-(methylamino)-1-(7-methyl-1H-pyrrolo[2,3-c]pyridin-1-yl)propan-2-ol hydrochloride]	521 nM	
CNC[C@@H](O)[C@H](c1cccc(F)c1)N1CCN(Cc2ccccc2)c2ccccc21 [Example 53, (1S,2R)-1-(4-benzyl-3,4-dihydroquinoxalin-1(2H)-yl)-1-(3-fluorophenyl)-3-(methylamino)propan-2-ol hydrochloride]		49%
CC1(C)CN([C@@H](c2cc(F)cc(F)c2)[C@H](O)CN)c2ccccc21 [Example 61, (1S,2R)-3-amino-1-(3,5-difluorophenyl)-1-(3,3-dimethyl-2,3-dihydro-1H-indol-1-yl)propan-2-ol hydrochloride]	216 nM	
CNC[C@@H](O)[C@H](c1ccccc1)N1C(=O)C2(CCCCC2)c2cc(OCc3ccccc3)ccc21 [Example 67, 5′-(benzyloxy)-1′-[(1S,2R)-2-hydroxy-3-(methylamino)-1-phenylpropyl]spiro[cyclohexane-1,3′-indol]-2′(1′H)-one hydrochloride]	839 nM	
CNC[C@@H](O)[C@H](c1ccccc1)N1C(=O)C(C)(C)c2cc(OCc3ccccc3)ccc21 [Example 68, 5-benzyloxy-1-[(1S,2R)-2-hydroxy-3-(methylamino)-1-phenylpropyl]-3,3-dimethyl-1,3-dihydro-2H-indol-2-one hydrochloride]	240 nM	

Now from value to molecule:

EC50	inhibition at 1 µM	Structure (SMILES)
135 nM		CNC[C@@H](O)[C@H](c1cccc(F)c1)n1cc(-c2ccc(F)cc2F)c2ccccc21 [Example 38, (1S,2R)-1-[3-(2,4-difluorophenyl)-1H-indol-1-yl]-1-(3-fluorophenyl)-3-(methylamino)propan-2-ol hydrochloride]
70 nM		CNC[C@@H](O)[C@H](c1cccc(F)c1)n1cc(-c2cc(F)ccc2F)c2ccccc21 [Example 39, (1S,2R)-1-[3-(2,5-difluorophenyl)-1H-indol-1-yl]-1-(3-fluorophenyl)-3-(methylamino)propan-2-ol hydrochloride]
41 nM		CNC[C@@H](O)[C@H](c1cccc(F)c1)n1cc(-c2cccc(OC)c2OC)c2ccccc21 [Example 40, (1S,2R)-1-[3-(2,3-dimethoxyphenyl)-1H-indol-1-yl]-1-(3-fluorophenyl)-3-(methylamino)propan-2-ol hydrochloride]
71 nM		CCOc1ccccc1-c1cn([C@@H](c2cccc(F)c2)[C@H](O)CNC)c2ccccc12 [Example 42, (1S,2R)-1-[3-(2-ethoxyphenyl)-1H-indol-1-yl]-1-(3-fluorophenyl)-3-(methylamino)propan-2-ol hydrochloride]
16 nM		CCC1CN([C@@H](c2ccccc2)[C@H](O)CNC)c2ccccc21 (stereo partly drawn) [Example 59, (1S,2R)-1-(3-ethyl-2,3-dihydro-1H-indol-1-yl)-3-(methylamino)-1-phenylpropan-2-ol hydrochloride]
67 nM		CNC[C@@H](O)[C@H](c1ccccc1)N1CC(C(C)C)c2ccccc21 (stereo partly drawn) [Example 60, (1S,2R)-1-(3-isopropyl-2,3-dihydro-1H-indol-1-yl)-3-(methylamino)-1-phenylpropan-2-ol hydrochloride]
4 nM		CNC[C@@H](O)[C@H](c1cc(F)cc(F)c1)N1C(=O)C(C)(C)c2cccc(F)c21 [Example 62, 1-[(1S,2R)-1-(3,5-difluorophenyl)-2-hydroxy-3-(methylamino)propyl]-7-fluoro-3,3-dimethyl-1,3-dihydro-2H-indol-2-one hydrochloride]
51 nM		CNC[C@@H](O)[C@H](c1cccc(F)c1)N1C(=O)C(C)(C)c2cc(F)cc(F)c21 [Example 63, 5,7-difluoro-1-[(1S,2R)-1-(3-fluorophenyl)-2-hydroxy-3-(methylamino)propyl]-3,3-dimethyl-1,3-dihydro-2H-indol-2-one hydrochloride]
20 nM		CNC[C@@H](O)[C@H](c1cc(F)cc(F)c1)N1C(=O)C(C)(C)c2ccccc21 [Example 64, 1-[(1S,2R)-1-(3,5-difluorophenyl)-2-hydroxy-3-(methylamino)propyl]-3,3-dimethyl-1,3-dihydro-2H-indol-2-one hydrochloride]
55 nM		CNC[C@@H](O)[C@H](c1ccccc1)n1ccc2cc(O)ccc21 [Example 65, 1-[(1S,2R)-2-hydroxy-3-(methylamino)-1-phenylpropyl]-1H-indol-5-ol hydrochloride]
3 nM		CNC[C@@H](O)[C@H](c1cccc(F)c1)n1ccc2cc(O)ccc21 [Example 66, 1-[(1S,2R)-1-(3-fluorophenyl)-2-hydroxy-3-(methylamino)propyl]-1H-indol-5-ol hydrochloride]
92 nM		CNC[C@@H](O)[C@H](c1cccc(Cl)c1)N1C(=O)C(C)(C)c2cccc(F)c21 [Example 69, 1-[(1S,2R)-1-(3-chlorophenyl)-2-hydroxy-3-(methylamino)propyl]-7-fluoro-3,3-dimethyl-1,3-dihydro-2H-indol-2-one hydrochloride]
